Experimental data published in patent US7763286B2, “Composition comprising an extract of Tiarella polyphylla and tiarellic acid isolated therefrom having antiinflammatory, antiallergic and antiasthmatic activity” (Korea Research Institute of Bioscience and Biotechnology, priority 2005, dated 2010).
Like-named read-outs stand apart in the source and are kept apart here.

Assays:
IL-5 = IL-5 level in BALF of OVA-induced asthmatic mice (ELISA); type: in vivo; conditions: 30 mg/ml; for IL-5: 48 hours after last challenge; for inhibition at 30000 µg/mL: Mus musculus, vs OVA-control
Description: (§1) Groups of mice (n=5-6) were studied; they received the following treatment: (1) sham-sensitization plus challenge with phosphate-buffered saline (PBS; ipNeb); (2) sensitization plus challenge with OVA (ovalbumin: Sigma A5503; Sigma, St. Louis, Mo.) (ipNeb); (3) sensitization with OVA (ip) plus challenge with OVA (Neb) and samples (tiarellic acid or zileuton, po). Briefly, mice were sensitized with intraperitoneal injection of 20 μg OVA, which was emulsified with 2 mg of aluminum hydroxide in 100 μl of PBS buffer (pH 7.4) on days 0 and 11. The mice were challenged through the airways with OVA (1% in PBS) for 20 min using an ultrasonic nubuilizer (NE-U12; Omron Corp., Tokyo, Japan) on days 19, 20, 21 and 25 after the initial sensitization. The mice were sacrificed 48 hours after the last challenge (day 27) to determine the suppressive effect of extract of T. polyphylla and tiarellic acid on the airways of allergic asthma.
(§2) 48 hours after the last challenge, the mice were sacrificed with an overdose of pentobarbital (Sigma P3761), and a tracheotomy was performed. After ice-cold PBS (0.5 ml) was instilled into the lungs, bronchoalveolar lavage fluid (BALF) was obtained by aspiration three times (total 1.5 ml) via tracheal cannulation. BALF was centrifuged and supernatants were collected and stored at −70° C. before use. The amount of IL-4, IL-5 and IL-13 in BALF was measured by a specific mouse ELISA kit (R&D Systems; Minneapolis, Minn.) according to the manufacturer's instructions. The detection limit of the assays was 250 pg/ml.
(§3) To determine the effect of extract of T. polyphylla and tiarellic acid on the cytokine release in the OVA-induced asthmatic mice, 48 hours after the last challenge, the levels of cytokines (IL-4, IL-5 and IL-13) in BALF were measured by using ELISA method.

[1] = tested on: OVA-induced asthmatic mice; test: Airway hyperresponsiveness (AHR), whole-body plethysmography, OVA-induced asthmatic mice; type: in vivo; conditions: for Penh value: tiarellic acid and zileuton 30 mg/ml, po; for Penh value / AHR compared with OVA-treated group: OVA-challenged mice, in words
Description: as §1, with “([…]” for “(tiarellic acid”, “tiarellic acid” left out, “asthma. 24 hours after the final aerosol challenge AHR was measured by using a whole-body plethysmography (OCP3000; Allmedicus, Korea)(Hamelmann E et al., Am J Respir Crit. Care Med., 156, pp 766-775, 1997). […] Bronchoconstriction was recorded for additional 5 mins at each concentration. The highest Penh value of each sample was obtained during each methacholine challenge, and expressed as a percentage of a basal Penh value in response to control (PBS) challenge.” for “asthma.”

HL-60 cells = conditions: human, 4 h
Description: Promyelotic HL-60 cells (HL-18103, 5×10^5 cells/ml) were seeded on 96-well plates under NGF-free condition. […] 4 hours later, MTT was removed and 100 μl of DMSO was dropped into each well to dissolve crystals. UV absorbance was measured by microplate reader (BIO-RAD, U.S.A.) at 570 nm to calculate the cell viability.

LTC4 release = LTC4 release from SCF-stimulated bone marrow-derived mast cells (BMMC), enzyme immunoassay; type: cell-based, Balb/c mice; conditions: Mus musculus, SCF 100 ng/ml stimulation, read-out: LTC4 release inhibition (IC50)
Description: BMMC were obtained from male Balb/c mice and cultured for up to 4 weeks in 50% enriched medium (RPMI containing 2 mM L-glutamine, 25 mM HEPES buffer, 2 mg/ml sodium bicarbonate, 100 units/ml penicillin G, 100 μg/ml streptomycin sulfate, 0.25 μg/ml amphotericin B) supplemented with 10% fetal bovine serum with IL-3 (Sigma I4144, 2 ng/ml) (Murakami M et al., J. Bio. Chem., 39, pp 22653-22656, 1995). 3 weeks after the culture, more than 98% of BMMC was found in the cells as assessed by staining method with toluidine blue.
BMMC were suspended in the enriched medium at the cell density of 1×10^6 cells/ml, and were then incubated in a humidified 5% CO2 incubator with or without sample in DMSO (final DMSO concentration was less than 0.5%) for 30 min at 37° C. After the stimulation with stem cell factor (SCF, Sigma S9915, 100 ng/ml) for 20 min, the LTC4 release in supernatants was measured by an enzyme immunoassay kit (Cayman Chemical, Ann Arbor, Mich., U.S.A.) according to the manufacturer's instructions. All the experiments were carried out in triplicate and the inhibition of LTC4 release was determined by calculating % reduction of LTC4 release from the control (Lee S H et al., Biol. Pharm. Bull., 27, pp 786-788, 2004). […]

OVA-specific IgE = OVA-specific IgE in plasma of OVA-induced asthmatic mice (ELISA); type: in vivo; conditions: Mus musculus, 48 hours after last challenge, 30 mg/ml, vs OVA-control
Description: as §1, with “The mice were sacrificed 48 hours after the last challenge (day 27) to determine the suppressive effect of extract of T. polyphylla and tiarellic acid on the airways of allergic asthma.” left out
48 hours after the last challenge, the mice were sacrificed with an overdose of pentobarbital (Sigma P3761), and a tracheotomy was performed. […] The amount of IL-4, IL-5 and IL-13 in BALF was measured by a specific mouse ELISA kit (R&D Systems; Minneapolis, Minn.) according to the manufacturer's instructions. […]
Plasma was obtained by cardiac puncture after the tracheotomy. […] IgE levels in each sample were measured the optical density readings at 450 nm, and OVA-specific IgE concentrations were calculated from a standard curve, which was generated in case recombinant IgE (5-2,000 ng/ml) was used.

IL-4 = IL-4 level in BALF of OVA-induced asthmatic mice (ELISA); type: in vivo; conditions: 30 mg/ml; for IL-4: 48 hours after last challenge; for inhibition at 30000 µg/mL: Mus musculus, vs OVA-control
Description: as §1, §2, §3

OVA-induced mice = test: OVA-induced inflammation in lung tissue (H&E histology, inflammation score); type: in vivo
Description: Groups of mice (n=5-6) were studied; they received the following treatment: (1) sham-sensitization plus challenge with phosphate-buffered saline (PBS; ipNeb); (2) sensitization plus challenge with OVA (ovalbumin: Sigma A5503; Sigma, St. Louis, Mo.) (ipNeb); (3) sensitization with OVA (ip) plus challenge with OVA (Neb) and samples (tiarellic acid or zileuton, po). Briefly, mice were sensitized with intraperitoneal injection of 20 μg OVA, which was emulsified with 2 mg of aluminum hydroxide in 100 μl of PBS buffer (pH 7.4) on days 0 and 11. […]
The lung tissue was fixed for 24 hours on 10% neutral-buffered formalin. […] The degree of cell infiltration in the airway was scored in a double-blind test performed by two independent investigators (Myou S et al., J. Exp. Med., 198, pp 1573-1582, 2003). The peri-bronchiole and peri-vascular inflammation was evaluated by specific standard, i.e., scoring of 0-3, 0, no cells; 1, a few cells; 2, a ring of cells 1 to 5 cell-layer deep; 3, a thick ring of cells more than 5 cell-layer deep. To evaluate the suppressive effect of T. polyphylla extract and tiarellic acid on the leukocyte infiltration, the degree of inflammation was scored by quantitative analysis in lung tissues 48 hours after the last challenge (See FIG. 2).

IL-13 = IL-13 level in BALF of OVA-induced asthmatic mice (ELISA); type: in vivo; conditions: 30 mg/ml; for IL-13: 48 hours after last challenge; for inhibition at 30000 µg/mL: Mus musculus, vs OVA-control
Description: as §1, §2, §3

ICR rat = test: Carageenan-induced rat-paw edema; type: in vivo; conditions: for The thickness ratio of ankle (%) / inhibition at 50 mg/kg: 50 mg/kg; for inhibition at 50 mg/kg: Rattus norvegicus, paw edema
Description: The inhibiting activity of the extract of T. polyphylla and […] prepared from the above Examples on the edema formation in ICR rat was determined as follows. The mice were divided into three groups consisting of 6 rats for each group, i.e., T1 treated with only solvent as a negative control group, T2 treated with 50 mg/kg of the extract of T. polyphylla, T3 treated with 50 mg/kg of aspirin respectively. 1 hour after the treatment, 1% […] solution was injected into inner rat ankle to induce edema and the thickness of ankle was measured by Vernier's caliper to determine the degree of the edema. The determined thickness was calculated by following Math Fig. 1. The thickness ratio of ankle(%)=[(maximum thickness of rat paw edema)-(the thickness of pre-treated rat paw edema)/(the thickness of pre-treated rat paw edema)]×100 MathFigure 1

Row | Structure (SMILES) | IL-5 (IL-5) [pg/mL] | inhibition at 30000 µg/mL (IL-5) [%] | Penh value ([1]; Metacholine 0 mg/ml) | Penh value ([1]; Metacholine 5 mg/ml) | Penh value ([1]; Metacholine 10 mg/ml) | Penh value ([1]; Metacholine 20 mg/ml) | Penh value / AHR compared with OVA-treated group [1] | IC50 (LTC4 release) [nM] | inhibition at 30000 µg/mL (OVA-specific IgE) [%] | IL-4 (IL-4) [pg/mL] | inhibition at 30000 µg/mL (IL-4) [%] | IL-13 (IL-13) [pg/mL] | inhibition at 30000 µg/mL (IL-13) [%] | other results
1 | C=C(C)[C@@H]1CC[C@]2(C)CC[C@]3(C(=O)O)C(CCC4[C@@]5(C)CC[C@H](O)[C@@](C)(CO)C5CC[C@]43C)C12 (some centres unmarked) [Tiarellic acid, tiarellic acid] | 81.9 ± 41.4 | 54.6 ± 23 | 0.46 ± 0.08 | 0.96 ± 0.45 | 1.54 ± 0.74 | 2.15 ± 0.52 | significantly reduced | 2490 | 48.8 | 33.8 ± 14.3 | 90.5 ± 4 | 81.7 ± 40.9 | 43.7 ± 28.2 | Cell viability (%) (HL-60 cells; 50 μM): 100%; Cell viability (%) (HL-60 cells; 100 μM): 102%; infiltration of eosinophil-rich leukocytes (OVA-induced mice; H&E staining of lung tissues, compared with OVA-treated mice): significantly attenuated; suppressive effect on the inflammation in the lung tissues (OVA-induced mice; OVA-induced mice, 48 hours after last challenge): most potent suppressive effect; inhibition effect on rat paw edema (ICR rat; in words): potent inhibition effect
2 | CC(=O)Oc1ccccc1C(=O)O [aspirin] |  |  |  |  |  |  |  |  |  |  |  |  |  | The thickness ratio of ankle (%) (ICR rat; 1 hr): 139.3 ± 40.6%; The thickness ratio of ankle (%) (ICR rat; 2 hr): 170.4 ± 34.5%; The thickness ratio of ankle (%) (ICR rat; 3 hr): 180.6 ± 28.6%; The thickness ratio of ankle (%) (ICR rat; 4 hr): 196.9 ± 15.4%; The thickness ratio of ankle (%) (ICR rat; 5 hr): 198.5 ± 12.6%; inhibition at 50 mg/kg (ICR rat; 1 hr): -16.8 ± 34%; inhibition at 50 mg/kg (ICR rat; 2 hr): -7.8 ± 21.8%; inhibition at 50 mg/kg (ICR rat; 3 hr): 7.3 ± 14.7%; inhibition at 50 mg/kg (ICR rat; 4 hr): 4.3 ± 7.5%; inhibition at 50 mg/kg (ICR rat; 5 hr): 1.5 ± 6.3%
3 | CC(c1cc2ccccc2s1)N(O)C(N)=O (centres unmarked) [zileuton] | 157.8 ± 41.3 | 12.5 | 0.55 ± 0.14 | 1.17 ± 0.59 | 1.97 ± 0.83 | 2.49 ± 0.90 | showed a decrease of AHR but less than tiarellic acid | 110 | 45.8 | 289.5 ± 59.0 | 18.7 | 130.1 ± 16.8 | 10.3 | 
